Experimental data taken from patent publication US9605078B2, “Pictet-Spengler ligation for protein chemical modification” (THE REGENTS OF THE UNIVERSITY OF CALIFORNIA, priority 2012, dated 2017).

Test: Small molecule hydrolysis of model oxime and oxacarboline, followed by liquid chromatography
Type: physicochemical
Conditions: 1 μM, buffered solutions at pH 4.5 or 5.0, room temperature, over two days
Method: Small molecule hydrolysis: Hydrolysis solutions contained 1 μM 5a or 5b, 25 μM phenylalanine as an internal standard, and 5 mM sodium acetate at the appropriate pH. The solutions were incubated at room temperature and 50 μL aliquots were repeatedly analyzed by liquid chromatography on an Agilent 1200 instrument using an Agilent Poroshell 120 EC-C18 reverse phase column (4.6×50 mm) with a solvent flow rate of 0.4 mL/min. The following gradient was employed (time (min), % MeCN in H2O with 0.1% TFA): 0, 5; 10, 95; 12, 95; 14, 5; 19, 5. The time of the first injection for each solution was assigned as t=0. Integrals of the absorption peaks for 5a and 5b at 440 nm were normalized against the phenylalanine peak for each injection.

Compound: O=C(NCCC=NOCc1ccccc1)c1ccc(-c2c3ccc(=O)cc-3oc3cc(O)ccc23)c(C(=O)O)c1 (racemic) [Compound 5a, 5-((3-((Benzyloxy)imino)propyl)carbamoyl)-2-(6-hydroxy-3-oxo-3H-xanthen-9-yl)benzoic acid]
- hydrolysis of conjugate (liquid chromatography): majority of oxime 5a hydrolyzed

Compound: CN1OCc2c(c3ccccc3n2CCC(=O)O)C1CCNC(=O)c1ccc(-c2c3ccc(=O)cc-3oc3cc(O)ccc23)c(C(=O)O)c1 (centres unmarked) [Compound 5b, 5-((2-(5-(2-Carboxyethyl)-2-methyl-1,2,4,5-tetrahydro-[1,2]oxazino [5,4-b]indol-1-yl)ethyl)carbamoyl)-2-(6-hydroxy-3-oxo-3H-xanthen-9-yl)benzoic acid]
- conjugate remained intact (liquid chromatography): over 90%
